Experimental data published in patent US3984481A, “Bis-2-substituted-thiovinyl sulfones” (Chevron Research Company, priority 1976, dated 1976).
Where two headings read alike, the source gives them in different places.

Legend:
[1] = test system: Elodea; test: Algae control (aquatic weed control) test; format: in vivo; conditions: read-out: Percent Aquatic Weed Control
Protocol: (§1) Representative compounds of the invention were tested as algicides by the following method. The algae test species were Lemna, Elodea and Spirolina. An acetone solution of the test compound and a small amount of an alkylarylpolyoxyethylene glycol-containing surfactant was prepared. This solution was mixed with a nutrient broth in a quantity sufficient to give a concentration of 2 ppm. A 240 ml container was filled with this mixture. A sample of the test algae was added to each container and the container was then placed in an illuminated environment and maintained at a temperature of about 20°C for incubation. The containers were observed periodically for algae growth (as compared to an untreated check). The algicidal effectiveness of the test compound was determined based on a final observation of algae growth after 7 to 10 days. The results of the test on a 0 to 100 basis -- 0 indicating no effectiveness and 100 indicating complete effectiveness -- are reported in Table III.

[2] = test system: Lemna; test: Algae control (aquatic weed control) test; format: in vivo; conditions: read-out: Percent Aquatic Weed Control
Protocol: as §1

[3] = test system: Spirolina; test: Algae control (aquatic weed control) test; format: in vivo; conditions: read-out: Percent Aquatic Weed Control
Protocol: as §1

[4] = test system: Pythium ultimum; test: Mycelial inhibition test
[5] = test system: Rhizoctonia solani; test: Mycelial inhibition test
[6] = test system: Aspergillus niger; test: Mycelial inhibition test
[7] = test system: Fusarium moniloforma; test: Mycelial inhibition test
[8] = test system: Botrytis cinerea; test: Mycelial inhibition test
[9] = Elodea, 2 ppm, 20°C, 7 to 10 days, 0 no effectiveness, 100 complete effectiveness
[10] = 2 ppm, 20°C, 7 to 10 days, 0 no effectiveness, 100 complete effectiveness
[11] = Spirolina, 2 ppm, 20°C, 7 to 10 days, 0 no effectiveness, 100 complete effectiveness
[12] = Pythium ultimum, 99% control, 25°C, 24 hours, 500 ppm acetone solution sprayed
[13] = Rhizoctonia solani, 99% control, 25°C, 24 hours, 500 ppm acetone solution sprayed
[14] = Aspergillus niger, 99% control, 25°C, 24 hours, 500 ppm acetone solution sprayed
[15] = Fusarium moniloforma, 99% control, 25°C, 24 hours, 500 ppm acetone solution sprayed
[16] = Botrytis cinerea, 99% control, 25°C, 24 hours, 500 ppm acetone solution sprayed

SMILES	inhibition at 2 ppm [1, 9]	inhibition at 2 ppm [2, 10]	inhibition at 2 ppm [3, 11]	Mycelia Inhibition, micrograms/cm^2 for 99% control [4, 12]	Mycelia Inhibition, micrograms/cm^2 for 99% control [5, 13]	Mycelia Inhibition, micrograms/cm^2 for 99% control [6, 14]	Mycelia Inhibition, micrograms/cm^2 for 99% control [7, 15]	Mycelia Inhibition, micrograms/cm^2 for 99% control [8, 16]	inhibition at 2 ppm [1]	inhibition at 2 ppm [2]	inhibition at 2 ppm [3]	Mycelia Inhibition, micrograms/cm^2 for 99% control [4]	Mycelia Inhibition, micrograms/cm^2 for 99% control [5]	Mycelia Inhibition, micrograms/cm^2 for 99% control [6]	Mycelia Inhibition, micrograms/cm^2 for 99% control [7]	Mycelia Inhibition, micrograms/cm^2 for 99% control [8]
O=S(=O)(C=CSc1ccc(Cl)c(Cl)c1)C=CSc1ccc(Cl)c(Cl)c1 [Compound 7]	90%	70%	95%	0.78 micrograms/cm^2	0.97 micrograms/cm^2	1.1 micrograms/cm^2	1.0 micrograms/cm^2	0.70 micrograms/cm^2								
O=S(=O)(CCSc1ccc(Cl)cc1)CCSc1ccc(Cl)cc1 [Compound 10, bis-2-(4-chlorophenylthio)ethyl sulfone, reference compound]	0%	0%	0%	> 1.7 micrograms/cm^2	> 1.7 micrograms/cm^2	> 1.7 micrograms/cm^2	> 1.7 micrograms/cm^2	> 1.7 micrograms/cm^2								
O=S(=O)(C=CSc1cc(Cl)ccc1Cl)C=CSc1cc(Cl)ccc1Cl [Compound 4]	70%	39%	80%	> 1.7 micrograms/cm^2	1.2 micrograms/cm^2	> 1.7 micrograms/cm^2	> 1.7 micrograms/cm^2	0.70 micrograms/cm^2								
O=S(=O)(C=CSc1ccc(Cl)cc1)C=CSc1ccc(Cl)cc1 [Compound 1]	97%	68%		0.22 micrograms/cm^2	0.9 micrograms/cm^2	0.86 micrograms/cm^2	> 1.7 micrograms/cm^2									
O=S(=O)(C=CSc1ccc(F)cc1)C=CSc1ccc(F)cc1 [Compound 5]	70%	30%	80%	> 1.7 micrograms/cm^2	> 1.7 micrograms/cm^2	> 1.7 micrograms/cm^2	> 1.7 micrograms/cm^2	> 1.7 micrograms/cm^2								
O=[N+]([O-])c1ccc(SC=CS(=O)(=O)C=CSc2ccc([N+](=O)[O-])cc2)cc1 [Compound 6]									78%	99%	90%	0.73 micrograms/cm^2	0.50 micrograms/cm^2	0.34 micrograms/cm^2	> 1.7 micrograms/cm^2	0.7 micrograms/cm^2
O=S(=O)(C=CSc1ccccc1)C=CSc1ccccc1 [Compound 8]	39%	0%	30%	> 1.7 micrograms/cm^2	0.88 micrograms/cm^2	0.50 micrograms/cm^2	> 1.7 micrograms/cm^2	1.5 micrograms/cm^2								
O=S(=O)(C=CSc1ccc(Br)cc1)C=CSc1ccc(Br)cc1 [Compound 3, bis-2-(4-bromophenylthio)vinyl sulfone]	94%	94%	40%	> 1.7 micrograms/cm^2	1.4 micrograms/cm^2	0.73 micrograms/cm^2	> 1.7 micrograms/cm^2	1.4 micrograms/cm^2								
O=S(=O)(C=CSc1cccc(Cl)c1)C=CSc1cccc(Cl)c1 [Compound 2]	94%	100%	0%	> 1.7 micrograms/cm^2	1.5 micrograms/cm^2	1.1 micrograms/cm^2	> 1.7 micrograms/cm^2	1.2 micrograms/cm^2								
